Target: T1, angiotensin II receptor (Oryctolagus cuniculus, UniProt P34976)
T1 construct: The aorta was cut into 3~4 mm to form ring samples; from tissue; host or cells: isolated aorta rings of New Zealand White rabbits
T1 sequence (P34976 1-359): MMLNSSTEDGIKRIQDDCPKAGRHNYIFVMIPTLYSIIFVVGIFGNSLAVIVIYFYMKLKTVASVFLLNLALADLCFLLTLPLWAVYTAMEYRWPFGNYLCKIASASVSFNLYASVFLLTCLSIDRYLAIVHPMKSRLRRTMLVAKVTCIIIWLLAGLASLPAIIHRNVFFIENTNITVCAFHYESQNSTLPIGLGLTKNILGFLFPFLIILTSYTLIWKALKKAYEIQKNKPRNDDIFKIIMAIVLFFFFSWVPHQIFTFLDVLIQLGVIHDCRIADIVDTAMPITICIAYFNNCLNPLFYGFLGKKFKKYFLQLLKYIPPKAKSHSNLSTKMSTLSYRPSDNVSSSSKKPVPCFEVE
Assay: inhibition of angiotensin II induced contraction of isolated rabbit aorta rings
Format: cell-based, New Zealand White rabbit
Details: test compound incubated 20 minutes, 37° C., pH 7.4, read-out: IC50 (concentration being required to inhibit angiotensin II induced contraction by 50%)
How it was run: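 Rabbit aortic rings in Krebs-Henseleit, 37 °C, pH 7.4, 2 g tension, contracted with Angiotensin II […] three times, the third serving as control. Compound incubated 20 min before rechallenge; IC50 is concentration inhibiting Angiotensin II contraction by 50%.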

Row | IC50 | SMILES
1 | 3.5 nM | CCCCc1nc(C)c(CCC(=O)OCC)c(=O)n1Cc1ccc(-c2ccccc2-c2nnn[nH]2)cc1 [Compound 23, 2-n-butyl-5-(2'-ethoxycarbonylethyl) -6-methyl-3-[[2'-(1H-tetrazol-5-yl)biphenyl-4-yl]methyl]-pyrimidin-4-(3H)-one]
2 | 36.1 nM | CCCCc1nc(C)c(CC(=O)O)c(=O)n1Cc1ccc(-c2ccccc2C(=O)O)cc1 [Compound 39, 2-n-butyl-5-carboxymethyl-6-methyl-3-(2'-carboxybiphenyl-4-yl)methyl-pyrimidin-4-(3H)-one]
3 | 14.2 nM | CCc1nc(C)c(CC(=O)O)c(=O)n1Cc1ccc(-c2ccccc2-c2nnn[nH]2)cc1 [Compound 2, 2-ethyl-5-carboxymethyl-6-methyl-3-[[2'-(1H-tetrazol-5-yl)-biphenyl-4-yl]methyl]-pyrimidin-4-(3H)-one]
4 | 30.8 nM | CCCCc1nc(C)c(CCC(=O)N(CC)CC)c(=O)n1Cc1ccc(-c2ccccc2-c2nnn[nH]2)cc1 [Compound 27, 2-n-butyl-5-(2'-diethylaminocarbonylethyl)-6-methyl-3-[[2'-(1H-tetrazol-5-yl)biphenyl-4-yl]methyl]-pyrimidin-4-(3H )-one]
5 | 5.59 nM | CCCc1nc(C)c(CC(=O)N(CC)CC)c(=O)n1Cc1ccc(-c2ccccc2-c2nnn[nH]2)cc1 [Compound 12, 2-n-propyl-5-diethylaminocarbonylmethyl-6-methyl-3-[[2'-(1H-tetrazol-5-yl)biphenyl-4-yl]methyl]-pyrimidin-4-(3H)-one]
6 | 62 nM | CCCCc1nc(=O)c(CCC(=O)O)c(CC)n1Cc1ccc(-c2ccccc2-c2nn[nH]n2)cc1 [Compound 35, 2-n-butyl-5-(2'-carboxyethyl)-6-ethyl-1-[[2'-(1H-tetrazol-5-yl)-biphenyl-4-yl]methyl]-pyrimidin-4-(1H)-one]
7 | 73.6 nM | CCc1nc(C)c(CCC(=O)N(CC)CC)c(=O)n1Cc1ccc(-c2ccccc2-c2nnn[nH]2)cc1 [Compound 8, 2-ethyl-5-(2'-diethylaminocarbonylethyl)-6-methyl-3-[[2'-(1H-tetrazol-5-yl)biphenyl-4-yl]methyl]-pyrimidin-4(3H)-one]
8 | 174 nM | CCCc1nc(C)c(CCC(=O)N(CC)CC)c(=O)n1Cc1ccc(-c2ccccc2-c2nnn[nH]2)cc1 [Compound 16, 2-n-propyl-5-(2'-diethylaminocarbonylethyl)-6-methyl-3-[[2'-(1H-tetrazol-5-yl)biphenyl-4-yl]methyl]-pyrimidin-4-(3H)-one]
9 | 4.17 nM | CCCCc1nc(CC)c(CCC(=O)O)c(=O)n1Cc1ccc(-c2ccccc2-c2nn[nH]n2)cc1 [Compound 34, 2-n-butyl-5-(2'-carboxyethyl)-6-ethyl-3-[[2'-(1H-tetrazol-5-yl)-biphenyl-4-yl]methyl]-pyrimidin-4-(3H)-one]
